Drawing on ChEMBL document CHEMBL3593233, “Caryophyllene sesquiterpenes from the marine-derived fungus Ascotricha sp. ZJ-M-5 by the one strain-many compounds strategy” (2014), this text covers GI50 for three molecules.

For assay [1], the system named is HL-60. Nature of the assay: Growth inhibition of human HL60 cells after 72 hrs by trypan blue assay. The class given is functional. The following applies: HL-60, 72 h.
Assay [2] relates to K562. Nature of the assay: Growth inhibition of human K562 cells after 72 hrs by trypan blue assay. The class given is functional. The following applies: K562, 72 h.

For `CC(=O)O[C@H]1C/C(C)=C/[C@@H](O)[C@H](O)[C@H]2[C@H](O)O[C@]13[C@@H]2CC3(C)C`, the GI50 came out at 6.9 µM in assay [1] and 10.1 µM in assay [2].
For `CC(=O)O[C@H]1C/C(C)=C/[C@@H](O)/C=C(/CO)[C@H]2CC(C)(C)[C@]12O`, in that order: above 100 µM and above 100 µM.
For `CO[C@@H]1[C@H]2[C@H](O)O[C@@]3([C@@H](OC(C)=O)C/C(C)=C/[C@H]1O)[C@@H]2CC3(C)C`, in that order: 8.5 µM and 12.3 µM.

In general, GI50 refers to the concentration giving 50% growth inhibition. Low readings indicate greater sensitivity of the cells, high ones lower sensitivity of the cells.
